Data on one compound can be found in US20220339135A1, “COMPOSITIONS AND METHODS FOR MODULATING AN INFLAMMATORY RESPONSE” (Enzychem Lifesciences Corporation, priority 2019, published 2022).

Each structure is given as a SMILES string.

The assay concerns lysosomal activity in THP-1 cells. Briefly: MSU-induced lysosomal activity. As to conditions: MSU/PLAG treated cells. It counts as cell-based, human. How it is done: THP-1 cells were divided into two groups: 1) MSU treated group and 2) MSU/PLAG treated group. For MSU treated group, THP-1 cells were stimulated with monosodium urate (MSU) crystal (400 μg/ml) for 0, 10, 20, 30, 40, 50, 60 minutes. For MSU/PLAG treated group, THP-1 cells were pre-incubated with PLAG (100 μg/ml) for an hour and then stimulated with monosodium urate (MSU) crystal (400 μg/ml) for 0, 10, 20, 30, 40, 50, 60 minutes. Then, cells were harvested. (A) To detect for the P2Y6 receptor on the membrane surface, cells were fixed with 4% paraformaldehyde (Sigma-Aldrich) and incubated with PBS containing 1% BSA for blocking. They were labeled with the rabbit anti-P2Y6 receptor antibody (1:200, APR-011, Alomone Labs, Jerusalem, Israel) for 1 h. The detection Ab was used with Alexa Flour 488 goat anti-rabbit IgG (Invitrogen). (B) To detect lysosomal activity, THP-1 cells were stained with Texas red conjugated-LYSO-ID® Lysosomal Detection Kit (Enzo Life Sciences, Inc.). Finally, cells were washed with 1% FBS/PBS and mounted with DAPI-containing fluorescence microscopy mounting medium (Invitrogen). Confocal samples were analyzed with a laser scanning confocal microscope (Carl Zeiss, Oberkochen, Germany). For flow cytometric analysis, cells were washed and analyzed with a FACSVerse flow cytometer (BD Biosciences). FlowJo software (Tree Star, OR, USA) was used data processing.

Consider `CCCCC/C=C\C/C=C\CCCCCCCC(=O)OC(COC(C)=O)COC(=O)CCCCCCCCCCCCCCC` (racemic) [PLAG, 1-palmitoyl-2-linoleoyl-3-acetylglycerol], for which the lysosomal activity detected result was “about 10 minutes” and the lysosomal activity returned entry is listed as “about 30 minutes”.
